Patent US10948498B2, “Methods and kits for predicting the risk of having a cardiovascular disease or event” (INOTREM, priority 2013, dated 2021)

Assays:
[1] = tested on: infarcted mice; assay: Mouse model of myocardial infarction: plasma sTREM-1 after peptide treatment; format: in vivo; conditions: for sTREM-1 levels: daily i.p. injection for 5 days, vs LR12-scrambled (FIG. 4A)
Description: (A) Adult male Balb/c mice (20-23 g) were subjected to myocardial ischemia and were randomly grouped (n=10 per group) to receive repeated LR12 (100 μg in 0.2 mL NaCl 0.9% once a day for 5 days) or scrambled-LR12 (100 μg in 0.2 mL NaCl 0.9% once a day for 5 days), i.p. injections. Blood samples was obtained at 24, 72 and 168 hours after cardiac ischemic event to measure plasma sTREM-1 levels. Physiologic baseline is calculated from dosage in healthy animals. N=10 per group and per timepoint.
(§1) Mice serum levels of sTREM-1 were determined by ELISA (Mouse TREM-1 Quantikine ELISA Kit, RnDsystems) using a detection limit at 31.3 pg/mL.
All procedures were performed on mice male C57BL/C ranging in age from 6-8 weeks. Mice were anesthetized by an intraperitoneal injection of xylazine (60 mg/kg) and fixed in supine position. The trachea was intubated and ventilated (the tidal volume was 200 μl/25 g and the respiratory rate was 120 breaths/min). After a left thoracotomy, the left coronary artery was identified and ligated with an 8-0 prolene surgical suture at 1.0 mm distal from tip of the left auricle. LAD occlusion was confirmed by a change in myocardial color from red to white in the ischemia area (Left ventricle). The chest was closed and the skin was sutured with 6-0 silk. The animals returned to their cage where they are supervised until their complete recovery.
Mice were randomized to receive or not peptides (daily ip injection for 5 days, 5 mg/kg) and were sacrificed after 24 h, 72 h, 168 h (n=6 per group) by anesthesia followed with pentobarbital sodium overdose for blood sampling.
We also show in infarcted mice that sTREM-1 levels were decreased by LR12 treatment 24 and 72 hours after an ischemic event (FIG. 4A).

[2] = tested on: Atherosclerotic mice (24 weeks old ApoE−/− mice under fat diet); assay: Atherosclerosis in mouse: plasma sTREM-1 after peptide treatment; format: in vivo
Description: (B) Atherosclerotic mice were randomized to receive LR12 (100 μg in 0.2 mL NaCl 0.9% once a day for 4 weeks) or scrambled-LR12 (100 μg in 0.2 mL NaCl 0.9% once a day for 4 weeks), i.p. injections. Blood samples were obtained at the end of the treatment (4 weeks) to assess sTREM-1 plasma concentrations. Physiologic baseline is calculated from dosage in healthy animals. N=10 per group.
as §1
12 and 24-weeks old male ApoE−/− mice were put on a fat (lipids 15%, cholesterol 1.25%, no cholate) or chow diet and were treated by daily intraperitoneal injection of peptides (100 μg/day). After 4 weeks of treatment, mice were sacrificed for blood sampling.
Our second objective was to assess whether a treatment could impact plasma levels of sTREM-1. Atherosclerotic mice (24 weeks old ApoE−/− mice under fat diet) were treated by LR12 peptide, which targets TREM-1 ligand, or a control peptide LR12-scrambled.

In the case of “LR12: 12 amino-acids peptide (LQEEDTGEYGCV, SEQ ID NO: 4) known to specifically target TREM-1 ligand (LR12)”, the sTREM-1 levels ([1]; 24 hours after ischemic event) is reported as “decreased”, the sTREM-1 levels ([1]; 72 hours after ischemic event) is reported as “decreased” and the “outcome after a cardiac ischemic event” value ([1]; data not shown) is reported as “better outcome”. For the same substance, the sTREM-1 plasma concentration ([2]; 24 weeks old ApoE−/− mice under fat diet, 100 μg/day i.p., after 4 weeks of treatment, ELISA) was 189.8 pg/mL and the outcome during atherosclerosis ([2]; data not shown) was “better outcome”.
